For this experiment, the target named is T1, Btk enzyme (His-tagged, full-length) (Homo sapiens, UniProt Q06187).
T1 construct: 5-10 nM Btk enzyme (His-tagged, full-length); His
In words: Bruton's Tyrosine Kinase (Btk) Inhibition Assay (33P filtration capture). The note with it: 100 μM ATP, 30 μM biotinylated peptide substrate, 30 min at 30° C. The class given is biochemical. The source says:
The assay is a capture of radioactive ^33P phosphorylated product through filtration. The interactions of Btk, biotinylated SH2 peptide substrate (Src homology), and ATP lead to phosphorylation of the peptide substrate. Biotinylated product is bound streptavidin sepharose beads. All bound, radiolabeled products are detected by scintillation counter.
Plates assayed are 96-well polypropylene (Greiner) and 96-well 1.2 μm hydrophilic PVDF filter plates (Millipore). Concentrations reported here are final assay concentrations: 10-100 μM compounds in DMSO (Burdick and Jackson), 5-10 nM Btk enzyme (His-tagged, full-length), 30 μM peptide substrate (Biotin-Aca-AAAEEIYGEI-NH2), 100 μM ATP (Sigma), 8 mM imidazole (Sigma, pH 7.2), 8 mM glycerol-2-phosphate (Sigma), 200 μM EGTA (Roche Diagnostics), 1 mM MnCl2 (Sigma), 20 mM MgCl2 (Sigma), 0.1 mg/ml BSA (Sigma), 2 mM DTT (Sigma), 1 μCi ^33P ATP (Amersham), 20% streptavidin sepharose beads (Amersham), 50 mM EDTA (Gibco), 2 M NaCl (Gibco), 2 M NaCl w/1% phosphoric acid (Gibco), microscint-20 (Perkin Elmer).
IC50 determinations are calculated from 10 data points per compound utilizing data produced from a standard 96-well plate assay template. […] Background was counted in the absence of peptide substrate. Total activity was determined in the presence of peptide substrate. […]

The source of these data is patent US8426409B2, “Inhibitors of Bruton's tyrosine kinase” (Roche Palo Alto LLC, priority 2008, dated 2013).

pIC50: −log10 of the molar value.

T1 sequence (Q06187 whole entry): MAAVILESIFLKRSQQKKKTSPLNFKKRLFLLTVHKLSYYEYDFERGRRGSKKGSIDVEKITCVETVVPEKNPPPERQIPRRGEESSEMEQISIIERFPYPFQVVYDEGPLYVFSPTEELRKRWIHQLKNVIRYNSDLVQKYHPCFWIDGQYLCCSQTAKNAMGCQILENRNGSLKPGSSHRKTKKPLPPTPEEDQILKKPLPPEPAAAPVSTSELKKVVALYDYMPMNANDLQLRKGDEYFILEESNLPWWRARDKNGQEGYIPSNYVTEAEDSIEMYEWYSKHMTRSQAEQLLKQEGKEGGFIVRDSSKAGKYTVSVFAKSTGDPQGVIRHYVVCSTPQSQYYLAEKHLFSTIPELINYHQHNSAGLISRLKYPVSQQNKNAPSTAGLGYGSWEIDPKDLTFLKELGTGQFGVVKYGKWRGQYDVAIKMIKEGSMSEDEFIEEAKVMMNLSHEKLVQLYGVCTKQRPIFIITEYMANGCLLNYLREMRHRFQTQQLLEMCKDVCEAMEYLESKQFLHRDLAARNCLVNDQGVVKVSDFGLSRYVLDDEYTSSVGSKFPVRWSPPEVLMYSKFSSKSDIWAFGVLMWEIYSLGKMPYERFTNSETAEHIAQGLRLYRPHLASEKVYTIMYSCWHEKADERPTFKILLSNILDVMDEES

For `O=C(c1ccc(Nc2nc(-c3cccc(N4CCc5cc(C6CC6)ccc5C4=O)c3CO)cn3ccnc23)cc1)N1CCOCC1` [II-1, 6-Cyclopropyl-2-(2-hydroxymethyl-3-{8-[4-(morpholine-4-carbonyl)-phenylamino]-imidazo[1,2-a]pyrazin-6-yl}-phenyl)-3,4-dihydro-2H-isoquinolin-1-one], the negative-log IC50 (pIC50) – broadly, −log10 of the IC50, conventionally taken in molar units – was 7.60.
In turn, `O=C1c2ccc(C3CC3)cc2CCN1c1cccc(-c2cn3ccnc3c(Nc3ccc(CN4CCOCC4)cc3)n2)c1CO` [II-2, 6-Cyclopropyl-2-{2-hydroxymethyl-3-[8-(4-morpholin-4-ylmethyl-phenylamino)-imidazo[1,2-a]pyrazin-6-yl]-phenyl}-3,4-dihydro-2H-isoquinolin-1-one] showed a pIC50 of 7.43.
